Reference: the NIST ThermoML archive (doi:10.1021/je100507n)

Key:
[1] = Molar enthalpy of transition or fusion
[2] = for mass density: 101.33 kPa, Buoyancy - hydrostatic balance with magnetic suspension - one sinker; for mass density / surface tension liquid-gas: Liquid; for surface tension liquid-gas: Ring tensiometer

CCCCC[n+]1ccccc1.O=S(=O)([N-]S(=O)(=O)C(F)(F)F)C(F)(F)F [1-pentylpyridinium bis(trifluoromethylsulfonyl)amide]
Conditions	Glass transition temperature [°C]	Molar enthalpy of transition or fusion [kcal/mol]	mass density [kg/m3]	surface tension liquid-gas [mN/m]
[1], Crystal	–	5.45	–	–
[2], 283.15 K	–	–	1433.1	33.1
[2], 288.15 K	–	–	1429.6	32.8
[2], 293.15 K	–	–	1425.9	32.7
[2], 298.15 K	–	–	1421.4	32.5
[2], 303.15 K	–	–	1416.9	32.2
[2], 308.15 K	–	–	1412.8	32
[2], 313.15 K	–	–	1408.3	31.8
[2], 318.15 K	–	–	1403.8	31.5
[2], 323.15 K	–	–	1398.9	31.3
[2], 328.15 K	–	–	1394.2	31.1
[2], 333.15 K	–	–	1389.3	30.8
[2], 338.15 K	–	–	1385.1	30.5
[2], DTA	-76.93	–	–	–

Conditions	Normal melting temperature [°C]
[2], Crystal, DTA	-0.31

CC[n+]1ccccc1.O=S(=O)([N-]S(=O)(=O)C(F)(F)F)C(F)(F)F [1-ethylpyridinium bis[(trifluoromethyl)sulfonyl]imide]
Conditions	Glass transition temperature [°C]	Molar enthalpy of transition or fusion [kcal/mol]	Normal melting temperature [°C]	Triple point temperature [K]	mass density [kg/m3]	surface tension liquid-gas [mN/m]
[1], Crystal 1	–	4.52	–	–	–	–
[2], 288.15 K	–	–	–	–	1545.7	37.7
[2], 293.15 K	–	–	–	–	1541.4	37.6
[2], 298.15 K	–	–	–	–	1537.5	37.4
[2], 303.15 K	–	–	–	–	1533.2	37.1
[2], 308.15 K	–	–	–	–	1529.1	36.9
[2], 313.15 K	–	–	–	–	1524.9	36.7
[2], 318.15 K	–	–	–	–	1520.5	36.6
[2], 323.15 K	–	–	–	–	1516.4	36.4
[2], 328.15 K	–	–	–	–	1512.2	36.1
[2], 333.15 K	–	–	–	–	1507.8	35.9
[2], 338.15 K	–	–	–	–	1503.7	35.6
[2], Crystal 1, DTA	–	–	30.50	–	–	–
[2], Crystal 2, DTA	–	–	–	292.8	–	–
[2], DTA	-37.91	–	–	–	–	–

CCCC[n+]1ccccc1.O=S(=O)([N-]S(=O)(=O)C(F)(F)F)C(F)(F)F [1-butylpyridinium bis[(trifluoromethyl)sulfonyl]imide]
Conditions	Molar enthalpy of transition or fusion, [1] [kcal/mol]	mass density, [2] [kg/m3]	surface tension liquid-gas, [2] [mN/m]
298.15 K	–	1454.7	33.4
303.15 K	–	1450.6	33.2
308.15 K	–	1446.2	32.9
313.15 K	–	1441.7	32.8
318.15 K	–	1437.2	32.4
323.15 K	–	1433.2	32.1
328.15 K	–	1429.1	32
333.15 K	–	1424.5	31.8
338.15 K	–	1420.5	–
Crystal	6.67	–	–

Conditions	Normal melting temperature [°C]
[2], Crystal, DTA	25.90
